Results published in ChEMBL document CHEMBL1151717, “In vivo active aldosterone synthase inhibitors with improved selectivity: lead optimization providing a series of pyridine substituted 3,4-dihydro-1H-quinolin-2-one derivatives” (J Med Chem, 2008).

How the values were obtained:
Cytochrome P450 2D6 = Cytochrome P450 2D6 (Homo sapiens, UniProt P10635); assay: Inhibition of human recombinant CYP2D6 expressed in baculovirus-infected insect microsomes; assay type: ADME, Microsome
[1] = target: T1, Cytochrome P450 11B2, mitochondrial (Homo sapiens, UniProt P19099); assay: Inhibition of human CYP11B2 expressed in hamster V79 MZh cells at 500 nM; assay type: cell-based; conditions: V79MZh
T1 sequence (P19099 whole entry): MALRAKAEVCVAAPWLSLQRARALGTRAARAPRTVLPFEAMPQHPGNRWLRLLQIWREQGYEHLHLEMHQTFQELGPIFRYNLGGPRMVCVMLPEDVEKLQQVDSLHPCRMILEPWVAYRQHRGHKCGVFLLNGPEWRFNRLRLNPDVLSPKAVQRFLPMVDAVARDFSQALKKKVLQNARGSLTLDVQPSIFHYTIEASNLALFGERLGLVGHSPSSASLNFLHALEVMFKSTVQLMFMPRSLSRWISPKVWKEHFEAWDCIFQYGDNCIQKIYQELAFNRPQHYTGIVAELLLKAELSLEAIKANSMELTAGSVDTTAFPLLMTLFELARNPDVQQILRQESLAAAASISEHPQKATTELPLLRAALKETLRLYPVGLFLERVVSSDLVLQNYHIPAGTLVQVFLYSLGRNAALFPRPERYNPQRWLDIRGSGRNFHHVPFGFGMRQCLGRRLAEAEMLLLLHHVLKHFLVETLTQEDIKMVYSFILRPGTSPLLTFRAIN

[2] = target: T1, Cytochrome P450 11B2, mitochondrial
Cytochrome P450 2B6 = target: T2, Cytochrome P450 2B6 (Homo sapiens, UniProt P20813); assay: Inhibition of human recombinant CYP2B6 expressed in baculovirus-infected insect microsomes; assay type: ADME, Microsome
T2 sequence (P20813 whole entry): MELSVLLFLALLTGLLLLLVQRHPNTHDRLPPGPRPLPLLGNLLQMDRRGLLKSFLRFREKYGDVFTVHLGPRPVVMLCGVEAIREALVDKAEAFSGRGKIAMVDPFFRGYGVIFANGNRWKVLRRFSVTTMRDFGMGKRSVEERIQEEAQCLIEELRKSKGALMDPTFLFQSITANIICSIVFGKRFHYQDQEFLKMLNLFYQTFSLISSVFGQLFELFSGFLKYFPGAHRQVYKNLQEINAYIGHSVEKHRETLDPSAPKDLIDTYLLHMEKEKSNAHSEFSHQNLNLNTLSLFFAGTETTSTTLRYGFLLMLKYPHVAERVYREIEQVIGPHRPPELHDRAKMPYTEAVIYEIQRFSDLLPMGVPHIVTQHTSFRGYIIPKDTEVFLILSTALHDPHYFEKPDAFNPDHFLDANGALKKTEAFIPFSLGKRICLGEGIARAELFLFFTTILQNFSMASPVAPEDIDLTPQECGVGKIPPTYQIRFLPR

Cytochrome P450 1A2 = target: T3, Cytochrome P450 1A2 (Homo sapiens, UniProt P05177)
T3 sequence (P05177 whole entry): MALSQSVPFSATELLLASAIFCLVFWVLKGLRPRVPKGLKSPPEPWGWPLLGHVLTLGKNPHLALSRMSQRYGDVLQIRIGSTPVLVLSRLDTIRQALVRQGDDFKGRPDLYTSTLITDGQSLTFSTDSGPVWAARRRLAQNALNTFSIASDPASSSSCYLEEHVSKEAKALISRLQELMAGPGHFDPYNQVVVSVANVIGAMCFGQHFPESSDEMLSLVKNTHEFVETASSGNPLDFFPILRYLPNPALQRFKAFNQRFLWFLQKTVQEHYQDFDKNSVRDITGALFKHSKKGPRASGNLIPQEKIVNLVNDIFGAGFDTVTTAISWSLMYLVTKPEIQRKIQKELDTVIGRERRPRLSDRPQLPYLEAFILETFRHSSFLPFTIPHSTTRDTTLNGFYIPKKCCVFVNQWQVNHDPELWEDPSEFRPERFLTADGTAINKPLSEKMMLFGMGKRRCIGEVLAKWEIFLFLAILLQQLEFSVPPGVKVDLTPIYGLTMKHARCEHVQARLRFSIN

Cytochrome P450 2C9 = Cytochrome P450 2C9 (Homo sapiens, UniProt P11712); assay: Inhibition of human recombinant CYP2C9 expressed in baculovirus-infected insect microsomes; assay type: ADME, Microsome
CYP17 = target: T4, CYP17 (Homo sapiens, UniProt P05093); assay: in vitro; conditions: human CYP17 expressed in Escherichia coli
T4 sequence (P05093 whole entry): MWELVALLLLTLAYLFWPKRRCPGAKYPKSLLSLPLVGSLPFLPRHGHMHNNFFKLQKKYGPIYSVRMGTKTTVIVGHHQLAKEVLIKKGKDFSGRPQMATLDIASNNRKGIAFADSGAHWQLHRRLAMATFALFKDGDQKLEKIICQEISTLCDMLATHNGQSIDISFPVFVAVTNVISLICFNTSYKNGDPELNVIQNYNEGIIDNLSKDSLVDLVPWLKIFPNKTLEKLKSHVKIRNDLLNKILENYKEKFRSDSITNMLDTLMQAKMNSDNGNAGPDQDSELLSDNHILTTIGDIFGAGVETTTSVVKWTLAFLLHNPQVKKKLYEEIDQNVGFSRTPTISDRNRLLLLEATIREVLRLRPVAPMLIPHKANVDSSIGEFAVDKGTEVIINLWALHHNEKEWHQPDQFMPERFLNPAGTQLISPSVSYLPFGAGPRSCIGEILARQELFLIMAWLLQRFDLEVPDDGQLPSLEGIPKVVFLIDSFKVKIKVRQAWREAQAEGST
Description: Inhibition of human CYP17 expressed in Escherichia coli at 2.5 uM

[3] = target: T5, Cytochrome P450 11B1, mitochondrial (Homo sapiens, UniProt P15538)
T5 sequence (P15538 whole entry): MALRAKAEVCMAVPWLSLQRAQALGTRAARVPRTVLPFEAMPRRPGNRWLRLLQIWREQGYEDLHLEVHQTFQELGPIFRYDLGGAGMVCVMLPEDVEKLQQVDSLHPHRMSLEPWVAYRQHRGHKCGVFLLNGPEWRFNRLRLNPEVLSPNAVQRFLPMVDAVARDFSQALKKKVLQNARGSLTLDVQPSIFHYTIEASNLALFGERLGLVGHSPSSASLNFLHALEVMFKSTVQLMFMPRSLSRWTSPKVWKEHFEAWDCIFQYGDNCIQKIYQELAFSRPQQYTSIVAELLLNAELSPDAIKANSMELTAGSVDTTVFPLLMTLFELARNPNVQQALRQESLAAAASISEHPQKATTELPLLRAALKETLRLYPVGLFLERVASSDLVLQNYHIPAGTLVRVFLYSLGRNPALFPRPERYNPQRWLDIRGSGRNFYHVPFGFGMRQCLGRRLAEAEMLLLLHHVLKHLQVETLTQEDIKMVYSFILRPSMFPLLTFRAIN

Cytochrome P450 3A4 = Cytochrome P450 3A4 (Homo sapiens, UniProt P08684); assay: Inhibition of human recombinant CYP3A4 expressed in baculovirus-infected insect microsomes; assay type: ADME, Microsome
CYP1A2 = target: T6, CYP1A2 (Homo sapiens, UniProt P05177); assay: Inhibition of human recombinant CYP1A2 expressed in baculovirus-infected insect microsomes at 2 uM; assay type: ADME, Microsome
T6 sequence (P05177 whole entry): T3 sequence (P05177 whole entry)

Sequence of Cytochrome P450 2D6 (P10635 whole entry): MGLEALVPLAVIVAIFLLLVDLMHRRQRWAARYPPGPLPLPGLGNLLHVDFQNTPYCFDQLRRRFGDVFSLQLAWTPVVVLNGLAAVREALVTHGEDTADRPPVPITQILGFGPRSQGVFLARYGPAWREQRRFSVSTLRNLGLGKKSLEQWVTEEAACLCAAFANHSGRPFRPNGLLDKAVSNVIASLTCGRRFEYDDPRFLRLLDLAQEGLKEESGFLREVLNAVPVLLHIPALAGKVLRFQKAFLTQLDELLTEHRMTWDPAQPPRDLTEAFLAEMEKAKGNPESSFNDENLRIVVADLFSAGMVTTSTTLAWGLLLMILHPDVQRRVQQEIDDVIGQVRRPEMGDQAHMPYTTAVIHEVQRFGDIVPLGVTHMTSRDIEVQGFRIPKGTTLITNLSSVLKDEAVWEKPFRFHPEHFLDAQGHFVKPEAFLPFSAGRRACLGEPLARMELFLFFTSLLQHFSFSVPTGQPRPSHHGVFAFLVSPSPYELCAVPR
Sequence of Cytochrome P450 2C9 (P11712 whole entry): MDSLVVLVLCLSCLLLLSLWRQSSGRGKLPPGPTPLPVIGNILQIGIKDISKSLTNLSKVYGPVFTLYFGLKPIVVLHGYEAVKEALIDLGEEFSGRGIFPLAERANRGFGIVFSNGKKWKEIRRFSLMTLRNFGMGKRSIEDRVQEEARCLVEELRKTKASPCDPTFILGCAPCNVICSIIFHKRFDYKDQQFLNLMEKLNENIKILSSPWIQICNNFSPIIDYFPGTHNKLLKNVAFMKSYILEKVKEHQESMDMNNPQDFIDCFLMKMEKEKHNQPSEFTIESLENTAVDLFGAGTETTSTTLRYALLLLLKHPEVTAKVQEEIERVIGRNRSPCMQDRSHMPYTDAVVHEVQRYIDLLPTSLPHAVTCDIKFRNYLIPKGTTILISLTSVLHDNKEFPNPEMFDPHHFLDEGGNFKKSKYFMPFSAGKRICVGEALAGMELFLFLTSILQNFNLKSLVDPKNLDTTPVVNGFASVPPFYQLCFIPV
Sequence of Cytochrome P450 3A4 (P08684 whole entry): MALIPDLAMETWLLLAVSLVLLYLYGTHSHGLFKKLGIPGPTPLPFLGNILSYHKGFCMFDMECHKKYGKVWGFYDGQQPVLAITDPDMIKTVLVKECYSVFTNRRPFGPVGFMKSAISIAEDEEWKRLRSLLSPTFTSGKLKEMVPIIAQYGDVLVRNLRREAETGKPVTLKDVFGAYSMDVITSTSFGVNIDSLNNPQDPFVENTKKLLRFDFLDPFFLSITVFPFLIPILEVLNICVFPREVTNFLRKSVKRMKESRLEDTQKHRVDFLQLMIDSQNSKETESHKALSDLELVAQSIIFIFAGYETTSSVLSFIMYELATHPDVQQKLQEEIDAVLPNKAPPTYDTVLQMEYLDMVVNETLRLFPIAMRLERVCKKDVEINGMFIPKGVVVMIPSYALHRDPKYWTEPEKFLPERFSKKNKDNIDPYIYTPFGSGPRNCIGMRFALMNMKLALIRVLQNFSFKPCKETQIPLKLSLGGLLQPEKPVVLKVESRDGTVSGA

| IC50 (Cytochrome P450 2D6; read-out: IC50) [µM] | inhibition at 0.5 µM [1] [%] | IC50 [2] [µM] | IC50 (Cytochrome P450 2B6) [µM] | IC50 (Cytochrome P450 1A2) [µM] | IC50 (Cytochrome P450 2C9) [µM] | inhibition at 2.5 µM (CYP17) [%] | IC50 [3] [µM] | IC50 (Cytochrome P450 3A4) [µM] | inhibition at 2 µM (CYP1A2) [%] | IC50 (Cytochrome P450 2D6) [µM] | SMILES |
| --- | --- | --- | --- | --- | --- | --- | --- | --- | --- | --- | --- |
| < 50 | 94 | 0.0002 | < 100 | > 150 | 2.9 | 22 | 0.033 | < 50 | < 5 |  | O=C1CCc2cc(-c3cncc4ccccc34)ccc2N1 |
|  | 94 | 0.0018 | < 50 | 1.56 | 12.9 | 21 | 0.191 | 3.8 | 57 | < 200 | COc1cncc(-c2ccc3c(c2)CCC(=O)C3)c1 |
| 171 | 97 | 0.0078 | < 50 | 1.55 | 28.3 | 20 | 3.96 | 6.21 | 60 |  | O=C1CCc2cc(-c3cccnc3)ccc2C1 |
